From ChEMBL document CHEMBL1125239, “Synthesis and biological evaluation of 5-deazaisofolic acid, 5-deaza-5,6,7,8-tetrahydroisofolic acid, and their N9-substituted analogues” (J Med Chem, 1991)

Experiments:
[1] = test system: MOLT-4; assay: Inhibition of the uptake of [3H]MTX influx into MOLT-4 cells.; assay type: functional, cell-based, Homo sapiens
[2] = organism: Sus scrofa; assay: (§1) Compound was evaluated for the substrate activity for hog liver Folyl-polyglutamate synthase
[3] = Ratio of relative Vmax values to that of apparent Km values.; assay type: ADME
[4] = molecular target: T1, Dihydrofolate reductase (Homo sapiens, UniProt P00374); assay: Inhibition of dihydrofolate reductase (DHFR) in WIL2 cells; assay type: cell-based; conditions: read-out: I50
T1 sequence (P00374 whole entry): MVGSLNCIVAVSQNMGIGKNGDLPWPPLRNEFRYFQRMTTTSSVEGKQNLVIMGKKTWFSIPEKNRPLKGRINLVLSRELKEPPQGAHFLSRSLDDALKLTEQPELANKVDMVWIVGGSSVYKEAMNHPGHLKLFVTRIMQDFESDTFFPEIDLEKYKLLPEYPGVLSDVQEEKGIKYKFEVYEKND

[5] = molecular target: Thymidylate synthase (Homo sapiens, UniProt P04818); assay: Inhibition of thymidylate synthase (TS) in human; conditions: read-out: I50
Chain of Thymidylate synthase (P04818 whole entry): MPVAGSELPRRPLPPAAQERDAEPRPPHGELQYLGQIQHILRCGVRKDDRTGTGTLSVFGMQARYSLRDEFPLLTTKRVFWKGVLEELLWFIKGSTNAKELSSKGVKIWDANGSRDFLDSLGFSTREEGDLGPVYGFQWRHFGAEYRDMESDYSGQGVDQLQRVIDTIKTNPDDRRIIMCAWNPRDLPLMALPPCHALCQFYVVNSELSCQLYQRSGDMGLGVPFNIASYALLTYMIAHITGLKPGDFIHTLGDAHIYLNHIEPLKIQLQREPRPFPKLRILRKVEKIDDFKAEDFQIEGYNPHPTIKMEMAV

[6] = test system: MCF7; assay: Effective dose which is required to inhibit 50% of the cell growth of MCF-7 cells in culture.; assay type: functional; conditions: Homo sapiens, read-out: ED50 (the source's name)
[7] = molecular target: Bifunctional purine biosynthesis protein ATIC (Homo sapiens, UniProt P31939); assay: Inhibition of 5-aminoimidazole-4-carboxamide AICAR formyltransferase in MOLT-4 cells; assay type: cell-based; conditions: read-out: I50
Chain of Bifunctional purine biosynthesis protein ATIC (P31939 whole entry): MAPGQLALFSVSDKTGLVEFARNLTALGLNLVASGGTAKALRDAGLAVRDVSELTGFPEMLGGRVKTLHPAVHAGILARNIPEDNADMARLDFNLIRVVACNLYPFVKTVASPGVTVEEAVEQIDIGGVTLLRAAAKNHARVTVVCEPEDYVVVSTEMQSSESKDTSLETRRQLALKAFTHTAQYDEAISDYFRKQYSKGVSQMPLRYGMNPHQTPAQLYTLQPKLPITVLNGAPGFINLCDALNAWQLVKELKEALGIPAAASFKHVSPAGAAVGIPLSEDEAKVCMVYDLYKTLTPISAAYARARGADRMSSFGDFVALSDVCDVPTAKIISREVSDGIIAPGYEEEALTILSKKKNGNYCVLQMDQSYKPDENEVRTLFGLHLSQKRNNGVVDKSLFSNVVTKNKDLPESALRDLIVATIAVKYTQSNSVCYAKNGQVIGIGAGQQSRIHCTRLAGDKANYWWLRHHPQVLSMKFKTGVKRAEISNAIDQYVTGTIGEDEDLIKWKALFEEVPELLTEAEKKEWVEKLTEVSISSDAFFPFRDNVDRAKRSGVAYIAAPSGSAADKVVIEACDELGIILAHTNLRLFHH

[8] = test system: Folyl-polyglutamate synthase; assay: as §1; assay type: ADME, tissue-based, Sus scrofa; conditions: pig, hog liver folylpolyglutamate synthase; read-out: Km app
[9] = organism: Sus scrofa; assay: Compound was evaluated for the substrate activity for hog liver […] synthetase

Structure (SMILES) | Ki [1] | Km [2] | Ratio [3] | IC50 [4] | IC50 [5] | EC50 [6] | IC50 [7] | Km [8] | Km [9]
Nc1nc(O)c2c(n1)NCC(NCc1ccc(C(=O)NC(CCC(=O)O)C(=O)O)cc1)C2 (configuration not stated) | 17.5 µM | 67.4 µM | 1 | > 1000 µM | > 100 µM | 1.2 µM | > 100 µM |  | 
Nc1nc(O)c2cc(NCc3ccc(C(=O)NC(CCC(=O)O)C(=O)O)cc3)cnc2n1 (configuration not stated) | > 30 µM | 133 µM |  | 0.21 µM | 7.1 µM | > 100 µM | 62.8 µM |  | 
Nc1nc(O)c2c(n1)NCC(CCc1ccc(C(=O)NC(CCC(=O)O)C(=O)O)cc1)C2 (configuration not stated) | 1.5 µM | 17.5 µM |  | > 100 µM | > 1000 µM | 0.018 µM |  |  | 
Nc1nc(N)c(CCCNc2ccc(C(=O)N[C@@H](CCC(=O)O)C(=O)O)cc2)c(O)n1 | 1 µM |  | 14.9 | > 100 µM | > 100 µM | 0.037 µM |  | 6.7 µM | 
CN(Cc1ccc(C(=O)NC(CCC(=O)O)C(=O)O)cc1)c1cnc2nc(N)nc(O)c2c1 (configuration not stated) |  | 55.3 µM | 0.85 | 0.25 µM | 0.48 µM | 35 µM | 141 µM |  | 
CN(Cc1ccc(C(=O)NC(CCC(=O)O)C(=O)O)cc1)C1CNc2nc(N)nc(O)c2C1 (configuration not stated) | 22 µM |  | 7 | > 1000 µM | > 100 µM | 4.5 µM | > 100 µM |  | 9.4 µM
Nc1nc(O)c2cc(N(C=O)Cc3ccc(C(=O)NC(CCC(=O)O)C(=O)O)cc3)cnc2n1 (configuration not stated) |  | > 100 µM |  | 1.95 µM | 28.8 µM | > 100 µM | 49.9 µM |  | 
